The subject of this assay is BDF1 mice, intracerebral L1210 leukemia, survival T/C. The assay can be described thus: NCI In Vivo Anticancer Drug Screen. Data for tumor model L1210 Leukemia (intracerebral) in B6D2F1 (BDF1) mice. To be noted: higher = longer survival. The procedure, abridged: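 Readout is the T/C ratio: survival of compound-treated animals over that of vehicle-treated controls, in mice bearing transplantable tumour.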

[1] abbreviates: endpoint: mean survival time, dose: 40.0 mg/kg/injection, schedule: Q01DX Z (ip), vehicle: saline.

The values below come from PubChem BioAssay AID252 (DTP/NCI, 2004).

Several values for one entry are separate records, joined by “and”; a condition that tells them apart may be missing. Identical values can stand only once. Inconclusive results and toxic doses are left out.

Turning to `CN(C)NCCC#N`, the T/C is, setting by setting: (endpoint: mean survival time, dose: 27.0 mg/kg/injection, schedule: Q01DX Z (ip), vehicle: saline) 105 % of control; under setting [1], 110 % of control; (endpoint: mean survival time, dose: 60.0 mg/kg/injection, schedule: Q01DX Z (ip), vehicle: saline) 108 % of control; (endpoint: mean survival time, dose: 90.0 mg/kg/injection, schedule: Q01DX Z (ip), vehicle: saline) 109 % of control.
Regarding `CCS(=O)(=O)Nc1cccc(Nc2c3cccc(C)c3nc3c(C)cccc23)c1OC`, the T/C runs as follows: (endpoint: mean survival time, dose: 12.5 mg/kg/injection, schedule: Q01DX009 (ip), vehicle: water) 117 % of control; (endpoint: mean survival time, dose: 12.5 mg/kg/injection, schedule: Q01DX009 (sc), vehicle: water) 105 % of control; (endpoint: mean survival time, dose: 25.0 mg/kg/injection, schedule: Q01DX009 (ip), vehicle: water) 92 % of control; (endpoint: mean survival time, dose: 25.0 mg/kg/injection, schedule: Q01DX009 (sc), vehicle: water) 118 % of control; (endpoint: mean survival time, dose: 50.0 mg/kg/injection, schedule: Q01DX009 (sc), vehicle: water) 113 % of control; (endpoint: mean survival time, dose: 100.0 mg/kg/injection, schedule: Q01DX009 (sc), vehicle: water) 104 % of control.
With `O=NN(CCF)C(=O)NC12CC3CC(CC(C3)C1)C2`, the T/C reads like this: (endpoint: mean survival time, dose: 10.0 mg/kg/injection, schedule: Q01DX001 (ip), vehicle: other) 103 % of control; (endpoint: mean survival time, dose: 20.0 mg/kg/injection, schedule: Q01DX001 (ip), vehicle: other) 101 % of control; (endpoint: mean survival time, dose: 40.0 mg/kg/injection, schedule: Q01DX001 (ip), vehicle: other) 110 % of control; (endpoint: mean survival time, dose: 60.0 mg/kg/injection, schedule: Q01DX001 (ip), vehicle: other) 120 % of control.
Regarding `CNNCc1ccc(C(=O)NC(C)C)cc1`, the T/C runs as follows: (endpoint: mean survival time, dose: 25.0 mg/kg/injection, schedule: Q01DX009 (ip), vehicle: saline) 105 % of control; under setting [1], 122 % of control; (endpoint: mean survival time, dose: 50.0 mg/kg/injection, schedule: Q01DX009 (ip), vehicle: saline) 108 % of control; (endpoint: mean survival time, dose: 64.0 mg/kg/injection, schedule: Q01DX010 (oral), vehicle: clinical formulation) 102 % of control; (endpoint: mean survival time, dose: 160.0 mg/kg/injection, schedule: Q01DX Z (ip), vehicle: saline) 155 % of control; (endpoint: median survival time, dose: 0.5 mg/kg/injection, schedule: Q01DX010 (ip), vehicle: clinical formulation) 105 % of control. The T/C is 106 % of control (endpoint: median survival time, dose: 0.5 mg/kg/injection, schedule: Q01DX010 (ip), vehicle: saline); 105 % of control (endpoint: median survival time, dose: 1.0 mg/kg/injection, schedule: Q01DX010 (ip), vehicle: clinical formulation); 103 % of control (endpoint: median survival time, dose: 1.0 mg/kg/injection, schedule: Q01DX010 (ip), vehicle: saline); 105 % of control (endpoint: median survival time, dose: 1.0 mg/kg/injection, schedule: Q01DX010 (oral), vehicle: clinical formulation); 103 % of control (endpoint: median survival time, dose: 2.0 mg/kg/injection, schedule: Q01DX010 (ip), vehicle: clinical formulation); 106 % of control (endpoint: median survival time, dose: 2.0 mg/kg/injection, schedule: Q01DX010 (ip), vehicle: saline). Moreover, the T/C is 103 % of control (endpoint: median survival time, dose: 2.0 mg/kg/injection, schedule: Q01DX010 (oral), vehicle: clinical formulation); 99 % of control (endpoint: median survival time, dose: 4.0 mg/kg/injection, schedule: Q01DX010 (ip), vehicle: clinical formulation); 106 % of control (endpoint: median survival time, dose: 4.0 mg/kg/injection, schedule: Q01DX010 (ip), vehicle: saline); 105 % of control (endpoint: median survival time, dose: 4.0 mg/kg/injection, schedule: Q01DX010 (oral), vehicle: clinical formulation); 101 % of control (endpoint: median survival time, dose: 8.0 mg/kg/injection, schedule: Q01DX010 (ip), vehicle: clinical formulation); 111 % of control (endpoint: median survival time, dose: 8.0 mg/kg/injection, schedule: Q01DX010 (ip), vehicle: saline). Also, the T/C (endpoint: median survival time, dose: 8.0 mg/kg/injection, schedule: Q01DX010 (oral), vehicle: clinical formulation) was 95 % of control; the T/C (endpoint: median survival time, dose: 16.0 mg/kg/injection, schedule: Q01DX010 (ip), vehicle: clinical formulation) was 103 % of control; the T/C (endpoint: median survival time, dose: 16.0 mg/kg/injection, schedule: Q01DX010 (ip), vehicle: saline) is 109 % of control; the T/C (endpoint: median survival time, dose: 16.0 mg/kg/injection, schedule: Q01DX010 (oral), vehicle: clinical formulation) is 92 % of control; the T/C (endpoint: median survival time, dose: 32.0 mg/kg/injection, schedule: Q01DX010 (ip), vehicle: clinical formulation) is 101 % of control; the T/C (endpoint: median survival time, dose: 32.0 mg/kg/injection, schedule: Q01DX010 (ip), vehicle: saline) was 104 % of control. Further, the T/C (endpoint: median survival time, dose: 32.0 mg/kg/injection, schedule: Q01DX010 (oral), vehicle: clinical formulation) was 97 % of control; the T/C (endpoint: median survival time, dose: 64.0 mg/kg/injection, schedule: Q01DX010 (oral), vehicle: clinical formulation) was 109 % of control; the T/C (endpoint: median survival time, dose: 128.0 mg/kg/injection, schedule: Q01DX010 (oral), vehicle: clinical formulation) is 104 % of control.
Turning to `CS(=O)(=O)Nc1ccc(Nc2c3ccccc3nc3ccccc23)cc1`, the T/C is, setting by setting: (endpoint: mean survival time, dose: 10.0 mg/kg/injection, schedule: Q01DX009 (ip), vehicle: saline) 104 % of control; (endpoint: mean survival time, dose: 10.0 mg/kg/injection, schedule: Q01DX009 (sc), vehicle: saline) 92 % of control; (endpoint: mean survival time, dose: 20.0 mg/kg/injection, schedule: Q01DX009 (ip), vehicle: saline) 101 % of control; (endpoint: mean survival time, dose: 20.0 mg/kg/injection, schedule: Q01DX009 (sc), vehicle: saline) 96 % of control; (endpoint: mean survival time, dose: 40.0 mg/kg/injection, schedule: Q01DX009 (ip), vehicle: saline) 96 % of control; (endpoint: mean survival time, dose: 40.0 mg/kg/injection, schedule: Q01DX009 (sc), vehicle: saline) 90 % of control. Moreover, the T/C (endpoint: mean survival time, dose: 80.0 mg/kg/injection, schedule: Q01DX009 (sc), vehicle: saline) was 96 % of control.
Regarding `Cc1nc(N)nc(N)c1-c1ccc(Cl)c(Cl)c1`, the T/C runs as follows: (endpoint: mean survival time, dose: 1.08 mg/kg/injection, schedule: Q01DX009 (ip), vehicle: saline) 105 % of control; (endpoint: mean survival time, dose: 1.8 mg/kg/injection, schedule: Q01DX009 (ip), vehicle: saline) 95 % of control; (endpoint: mean survival time, dose: 3.0 mg/kg/injection, schedule: Q01DX009 (ip), vehicle: saline) 98 % of control; (endpoint: mean survival time, dose: 5.0 mg/kg/injection, schedule: Q01DX009 (ip), vehicle: saline) 97 % of control; (endpoint: mean survival time, dose: 8.4 mg/kg/injection, schedule: Q01DX009 (ip), vehicle: saline) 111 % of control; (endpoint: mean survival time, dose: 8.4 mg/kg/injection, schedule: Q04DX003 (ip), vehicle: saline) 104 % of control. Further, the T/C is, setting by setting: (endpoint: mean survival time, dose: 14.0 mg/kg/injection, schedule: Q04DX003 (ip), vehicle: saline) 96 % of control; (endpoint: mean survival time, dose: 23.0 mg/kg/injection, schedule: Q04DX003 (ip), vehicle: saline) 103 % of control; (endpoint: mean survival time, dose: 39.0 mg/kg/injection, schedule: Q04DX003 (ip), vehicle: saline) 93 % of control; (endpoint: mean survival time, dose: 65.0 mg/kg/injection, schedule: Q04DX003 (ip), vehicle: saline) 103 % of control; (endpoint: median survival time, dose: 0.62 mg/kg/injection, schedule: Q01DX009 (ip), vehicle: saline) 106 % of control; (endpoint: median survival time, dose: 1.25 mg/kg/injection, schedule: Q01DX009 (ip), vehicle: saline) 115 % of control. Also, the T/C by setting is: (endpoint: median survival time, dose: 5.0 mg/kg/injection, schedule: Q01DX009 (ip), vehicle: saline) 117 % of control; (endpoint: median survival time, dose: 10.0 mg/kg/injection, schedule: Q01DX009 (ip), vehicle: saline) 104 % of control.
Consider `CC(Cl)CNC(=O)N(CC(C)Cl)N=O` (stereo not drawn), for which the T/C was 107 % of control (endpoint: mean survival time, dose: 250.0 mg/kg/injection, schedule: Q01DX001 (ip), vehicle: carboxymethylcellulose (CMC)); 112 % of control (endpoint: mean survival time, dose: 500.0 mg/kg/injection, schedule: Q01DX001 (ip), vehicle: carboxymethylcellulose (CMC)); 204 % of control (endpoint: mean survival time, dose: 1000.0 mg/kg/injection, schedule: Q01DX001 (ip), vehicle: carboxymethylcellulose (CMC)).
Turning to `CN(N=O)C(=O)NC(=O)N(C)N=O`, the T/C by setting is: (endpoint: mean survival time, dose: 27.5 mg/kg/injection, schedule: Q01DX001 (ip), vehicle: carboxymethylcellulose (CMC)) 107 % of control; (endpoint: mean survival time, dose: 54.0 mg/kg/injection, schedule: Q01DX001 (ip), vehicle: carboxymethylcellulose (CMC)) 104 % of control.
In the case of `C=CC(CN1CC1)OC(C)=O` (stereo not drawn), the T/C (endpoint: mean survival time, dose: 2.5 mg/kg/injection, schedule: Q01DX Z (ip), vehicle: saline) was 119 % of control; the T/C (endpoint: mean survival time, dose: 11.0 mg/kg/injection, schedule: Q01DX001 (ip), vehicle: saline) was 113 % of control and 117 % of control; the T/C (endpoint: mean survival time, dose: 17.0 mg/kg/injection, schedule: Q01DX001 (ip), vehicle: saline) is 117 % of control; the T/C (endpoint: mean survival time, dose: 25.0 mg/kg/injection, schedule: Q01DX001 (ip), vehicle: saline) was 119 % of control; the T/C (endpoint: mean survival time, dose: 25.0 mg/kg/injection, schedule: Q01DX Z (ip), vehicle: saline) was 120 % of control; the T/C (endpoint: mean survival time, dose: 30.0 mg/kg/injection, schedule: Q01DX Z (ip), vehicle: saline) was 105 % of control.
